Legend:
pore-only NavMs = biological target: T1, pore-only NavMs (Magnetococcus marinus, UniProt A0L5S6); assay: […]+ uptake into proteoliposomes; type: biochemical; conditions: 3:1 POPE:guest lipid, pH 7.5, 60 min; small but significant activation
T1 construct: gene Mmc1_0798; purified from decyl maltoside; tetramer; reconstituted in liposomes
T1 sequence (A0L5S6 130-237): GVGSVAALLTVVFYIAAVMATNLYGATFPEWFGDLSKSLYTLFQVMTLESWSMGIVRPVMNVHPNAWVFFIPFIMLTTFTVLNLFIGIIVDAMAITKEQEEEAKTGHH

NavMs = biological target: T2, NavMs (Magnetococcus marinus, UniProt A0L5S6); assay: […]+ uptake into proteoliposomes; type: biochemical; conditions: 3:1 POPE:guest lipid, pH 7.5, 60 min; activator, greatest activity of guest lipids tested
T2 construct: gene Mmc1_0798; expressed in E. coli, hexa-His tag cleaved with thrombin; tetramer; reconstituted in liposomes
T2 sequence (A0L5S6 1-239 limits assumed): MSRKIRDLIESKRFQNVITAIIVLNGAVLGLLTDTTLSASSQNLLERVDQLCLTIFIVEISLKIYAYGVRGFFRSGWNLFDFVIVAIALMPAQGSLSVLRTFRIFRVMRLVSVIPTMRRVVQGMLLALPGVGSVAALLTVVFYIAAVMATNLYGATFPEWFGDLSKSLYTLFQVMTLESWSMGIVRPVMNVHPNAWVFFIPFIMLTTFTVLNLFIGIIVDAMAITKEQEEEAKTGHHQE

NaChBac = biological target: T3, NaChBac (Halalkalibacterium halodurans, UniProt Q9KCR8); assay: […]+ uptake into proteoliposomes; type: biochemical; conditions: 3:1 POPE:guest lipid, pH 7.5, 120 min; activator, greatest activity of guest lipids tested, modest variation
T3 construct: gene BH1501; full-length, expressed in E. coli, hexa-His tag cleaved with thrombin; ~31 kDa monomer; tetramer; reconstituted in liposomes
T3 sequence (Q9KCR8 1-274): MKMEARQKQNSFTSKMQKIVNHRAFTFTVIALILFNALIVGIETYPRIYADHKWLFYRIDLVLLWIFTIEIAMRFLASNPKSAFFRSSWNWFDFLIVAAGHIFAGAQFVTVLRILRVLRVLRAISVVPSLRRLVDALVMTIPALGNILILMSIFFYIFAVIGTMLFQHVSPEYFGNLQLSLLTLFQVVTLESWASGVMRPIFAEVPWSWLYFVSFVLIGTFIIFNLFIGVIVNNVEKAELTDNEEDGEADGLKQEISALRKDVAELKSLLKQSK

[1] = biological target: NavSp pore-only construct (voltage sensor subdomain removed) (Silicibacter pomeroyi); assay: SEC; gel filtration of pore-only constructs in decyl maltoside (0.2% DM); elution at tetramer mass plus DM micelle (~30 kDa)
[2] = biological target: NavSp, voltage-gated sodium channel from Silicibacter pomeroyi (Silicibacter pomeroyi) (UniProt F7IVA8); assay: SEC; Superdex 200 10/300 GL; 10 mM Tris-HCl pH 7.5, 100 mM NaCl, 0.02% NaN3, 0.25% Cymal-5; elution at tetramer mass plus Cymal-5 micelle (~23 kDa)
NavSp = biological target: T4, NavSp (Ruegeria pomeroyi, UniProt F7IVA8); assay: […]+ uptake into proteoliposomes; type: biochemical; conditions: 3:1 POPE:PI liposomes with 1% PI(4,5)P2, pH 7.5; inhibitor
T4 construct: gene SPO0030; full-length, expressed in E. coli, N-terminal hexa-His tag cleaved with thrombin; 258 amino acids; ~29 kDa monomer; tetramer; reconstituted in liposomes
T4 sequence (F7IVA8 1-258): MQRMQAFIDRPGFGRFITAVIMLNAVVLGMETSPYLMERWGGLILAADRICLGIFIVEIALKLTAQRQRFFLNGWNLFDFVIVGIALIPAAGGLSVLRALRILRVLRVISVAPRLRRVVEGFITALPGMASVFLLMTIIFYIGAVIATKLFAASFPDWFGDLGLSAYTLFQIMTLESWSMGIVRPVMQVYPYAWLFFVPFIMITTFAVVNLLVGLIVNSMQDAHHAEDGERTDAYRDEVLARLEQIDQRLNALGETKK

[3] = biological target: the molecule itself; assay: SEC; Superdex 200 10/300 GL; 10 mM Tris-HCl pH 7.5, 100 mM NaCl, 0.02% NaN3, 0.25% Cymal-5; elution at tetramer mass plus Cymal-5 micelle (~23 kDa)
[4] = biological target: the molecule itself; assay: SEC; gel filtration of pore-only constructs in decyl maltoside (0.2% DM); elution at tetramer mass plus DM micelle (~30 kDa)

Molecule: CCCCCCCC/C=C\CCCCCCCC(=O)OC[C@H](COP(=O)(O)OCC(O)COP(=O)(O)OC[C@@H](COC(=O)CCCCCCC/C=C\CCCCCCCC)OC(=O)CCCCCCC/C=C\CCCCCCCC)OC(=O)CCCCCCC/C=C\CCCCCCCC (some centres unmarked) [CL, 18∶1 cardiolipin]
- 22Na+ uptake into proteoliposomes (pore-only NavMs): small but significant increase in activity when CL was present in the liposomes

Molecule: CCCCCCCC/C=C\CCCCCCCC(=O)O[C@H](COC(=O)CCCCCCCCCCCCCCC)COP(=O)(O)OCC(O)CO (some centres unmarked) [PG, 1-palmitoyl 2-oleoyl phospatidyl glycerol]
- 22Na+ uptake into proteoliposomes (NavMs): NavMs and NaChBac also showed maximal activity with a negatively-charged lipid
- 22Na+ uptake into proteoliposomes (NaChBac): NavMs and NaChBac also showed maximal activity with a negatively-charged lipid

Molecule: NavSp pore-only construct (voltage sensor subdomain removed) (domain or fragment)
- stoichiometry N [1]: 4

Molecule: NavSp, voltage-gated sodium channel from Silicibacter pomeroyi (from UniProt F7IVA8 1-258) (natural protein)
- stoichiometry N [2]: 4

Molecule: phosphatidylinositol 4,5-bisphosphate [PI(4,5)P2]
- % inhibition at 1% PI(4,5)P2 (NavSp): ~ 50%

B1: NaChBac, voltage-gated sodium channel from Bacillus halodurans (natural protein, UniProt Q9KCR8 1-274, looked up)
chain: MKMEARQKQNSFTSKMQKIVNHRAFTFTVIALILFNALIVGIETYPRIYADHKWLFYRIDLVLLWIFTIEIAMRFLASNPKSAFFRSSWNWFDFLIVAAGHIFAGAQFVTVLRILRVLRVLRAISVVPSLRRLVDALVMTIPALGNILILMSIFFYIFAVIGTMLFQHVSPEYFGNLQLSLLTLFQVVTLESWASGVMRPIFAEVPWSWLYFVSFVLIGTFIIFNLFIGVIVNNVEKAELTDNEEDGEADGLKQEISALRKDVAELKSLLKQSK
notes: NaChBac, voltage-gated sodium channel of Bacillus halodurans, Uniprot ID Q9KCR8, full length; pET15b vector was bought; source: E. coli, purified (DDM solubilisation, Ni-NTA in Cymal-5, thrombin, gel filtration)
- stoichiometry N [3]: 4

B2: NavMs pore-only construct (voltage sensor subdomain removed) (domain or fragment, Magnetococcus spirillium (strain MC-1))
chain: GVGSVAALLTVVFYIAAVMATNLYGATFPEWFGDLSKSLYTLFQVMTLESWSMGIVRPVMNVHPNAWVFFIPFIMLTTFTVLNLFIGIIVDAMAITKEQEEEAKTGHH
notes: NavMs of Magnetococcus spirillium (strain MC-1), Uniprot ID printed as AOL5S6 (A0L5S6), pore-only construct without the voltage sensor subdomain; PDB 4F4L is the cited crystal structure of the NavMs pore; also called pore-only NavMs; source: E. coli, purified in decyl maltoside (DM)
- stoichiometry N [4]: 4

— PMC3620320, “Differential Lipid Dependence of the Function of Bacterial Sodium Channels” (PLoS ONE, 2013)
